Test results taken from PMC11470957, “Principles of paralog-specific targeted protein degradation engaging the C-degron E3 KLHDC2” (Nature Communications, 2024).

Target: T1, KLHDC2^SBD (Homo sapiens, UniProt Q9Y2U9)
T1 sequence (Q9Y2U9 15-361): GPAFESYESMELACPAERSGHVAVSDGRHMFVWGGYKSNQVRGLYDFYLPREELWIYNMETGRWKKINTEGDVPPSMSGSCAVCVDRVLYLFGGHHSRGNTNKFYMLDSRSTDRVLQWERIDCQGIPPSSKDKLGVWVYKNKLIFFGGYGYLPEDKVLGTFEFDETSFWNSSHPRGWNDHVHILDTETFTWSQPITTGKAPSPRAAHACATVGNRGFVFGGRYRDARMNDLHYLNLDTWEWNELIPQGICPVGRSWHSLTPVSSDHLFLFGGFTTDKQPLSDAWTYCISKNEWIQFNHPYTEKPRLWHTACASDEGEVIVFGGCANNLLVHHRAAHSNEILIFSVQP
Assay: Surface plasmon resonance binding to KLHDC2
Set-up: KLHDC2^SBD (15-361) and its Avi-tagged counterpart were expressed in E. coli Rosetta2 cells; 6XHis-MBP (N, cleaved yes); made in house; host or cells: E. coli Rosetta2
Procedure: Surface plasmon resonance (SPR) was utilized to determine kinetic parameters and binding affinity of KLHDC2 substrates using a PioneerFE (Sartorius). Experiments were carried out in 20 mM Tris, 200 mM NaCl, 1 mM TCEP, 0.01% Brij35, and 1% DMSO at pH 7.4 as a running buffer with a 100 µL/min flow rate at 20 °C.
The 10xHis-KLHDC2 was immobilized onto a Ni-NTA-coated biosensor chip (HisCap). The chip surface was conditioned using 10 mM HCl, 50 mM NaOH, and 0.1% SDS (50 µL at 100 µL/min) twice, followed by a 100 mM Tris buffer wash (100 µL at 100 µL/min). The surface was then activated using an injection of 0.5 M EDTA (125 µL at 25 µL/min) followed by an injection of 5 mM NiCl2 (125 µL at 25 µL/min). […] Channel 2 was treated identically to channel 3 except for protein loading to be used as a reference channel. […] 100% of the loop was injected with a 300 s dissociation time. All samples were run in triplicate. Data was analyzed using Qdat software and fit to a simple 1-site model.
The SPR experiments were performed to determine the binding affinities (KD) of KLHDC2-SJ46411 and KLHDC2-SJ46418 complexes. All the experiments were performed using a Biacore 1S+ instrument. […] The running buffer consisted of 20 mM Tris pH 7.5, 200 mM NaCl, 1 mM TCEP, 0.01% Brij35, and 4% DMSO. […] In brief, before the immobilization, the sensor chip surface was conditioned by injecting a mixture of (3:1 v/v) 8 M guanidine hydrochloride and 1 M NaOH at a flow rate of 5 μL/min for 2 min for two times. Then, running buffer was injected at a 30 μl/min flow rate for 1 min 3 times. Next, the Biotin CAPture reagent was injected at a flow rate of 2 μl/min for 5 min. Then, biotinylated KLHDC2 was only injected onto the active channel (channel 2).
Sample preparation was carried out precisely the same as SJ46411. All experiments were performed using a multi-cycle analysis method with a 30 μl/min flow rate, 120 S association, and 240 s dissociation time. All data were reference subtracted and corrected for DMSO mismatch. The sensorgrams were analyzed using Biacore insight evaluation software, and KD was determined using the 1:1 steady-state affinity fitting. Finally, all the analyzed data was replotted using GraphPad Prizm 10 software.

`COCCOc1cccc2ccc(-c3nc(CC(=O)NCC(=O)O)cs3)cc12` [SJ46418] was tested, and the “Raw SPR response” value (0.0976562 uM, time -29 s) was 0.0989, the “Raw SPR response” value (0.0976562 uM, time -29.1 s) was 0.1275 and the “Raw SPR response” value (0.0976562 uM, time -29.2 s) was 0.1501. The “Raw SPR response” value (0.0976562 uM, time -29.3 s) was 0.2497, the “Raw SPR response” value (0.195312 uM, time -29 s) was 0.0952 and the “Raw SPR response” value (0.195312 uM, time -29.1 s) was 0.1196. The “Raw SPR response” value (0.195312 uM, time -29.2 s) was 0.1572, the “Raw SPR response” value (0.195312 uM, time -29.3 s) was 0.2514 and the “Raw SPR response” value (0.390625 uM, time -29 s) was 0.1406. The “Raw SPR response” value (0.390625 uM, time -29.1 s) was 0.1812, the “Raw SPR response” value (0.390625 uM, time -29.2 s) was 0.2616 and the “Raw SPR response” value (0.390625 uM, time -29.3 s) was 0.3693. The “Raw SPR response” value (0.78125 uM, time -29 s) was 0.1584, the “Raw SPR response” value (0.78125 uM, time -29.1 s) was 0.1946 and the “Raw SPR response” value (0.78125 uM, time -29.2 s) was 0.2669. For the same compound, the “Raw SPR response” value (0.78125 uM, time -29.3 s) was 0.3893, the “Raw SPR response” value (1.5625 uM, time -29 s) was 0.1505 and the “Raw SPR response” value (1.5625 uM, time -29.1 s) was 0.1878. For the same compound, the “Raw SPR response” value (1.5625 uM, time -29.2 s) was 0.2713, the “Raw SPR response” value (1.5625 uM, time -29.3 s) was 0.3827 and the “Raw SPR response” value (2.34375 uM, time -29 s) was 0.1726. The “Raw SPR response” value (2.34375 uM, time -29.1 s) was 0.2365, the “Raw SPR response” value (2.34375 uM, time -29.2 s) was 0.3258 and the “Raw SPR response” value (2.34375 uM, time -29.3 s) was 0.5246. The “Raw SPR response” value (3.125 uM, time -29 s) was 0.1584, the “Raw SPR response” value (3.125 uM, time -29.1 s) was 0.2098 and the “Raw SPR response” value (3.125 uM, time -29.2 s) was 0.2855. For the same compound, the “Raw SPR response” value (3.125 uM, time -29.3 s) was 0.3398, the “Raw SPR response” value (4.6875 uM, time -29 s) was 0.1506 and the “Raw SPR response” value (4.6875 uM, time -29.1 s) was 0.2195. The “Raw SPR response” value (4.6875 uM, time -29.2 s) was 0.3095, the “Raw SPR response” value (4.6875 uM, time -29.3 s) was 0.4038 and the “Raw SPR response” value (12.5 uM, time -29 s) was 0.1017. The “Raw SPR response” value (12.5 uM, time -29.1 s) was 0.1107, the “Raw SPR response” value (12.5 uM, time -29.2 s) was 0.1281 and the “Raw SPR response” value (12.5 uM, time -29.3 s) was 0.1417. The “Raw SPR data, fit” value (0.09765625 Fit, time -29 s) was -0.002337, the “Raw SPR data, fit” value (0.09765625 Fit, time -29.1 s) was -0.002345 and the “Raw SPR data, fit” value (0.09765625 Fit, time -29.2 s) was -0.002354. The “Raw SPR data, fit” value (0.09765625 Fit, time -29.3 s) was -0.002362, the “Raw SPR data, fit” value (0.1953125Fit uM, time -29 s) was 0.003849 and the “Raw SPR data, fit” value (0.1953125Fit uM, time -29.1 s) was 0.003863. The “Raw SPR data, fit” value (0.1953125Fit uM, time -29.2 s) was 0.003876, the “Raw SPR data, fit” value (0.1953125Fit uM, time -29.3 s) was 0.003889 and the “Raw SPR data, fit” value (0.390625fit, time -29 s) was 0.007264. The “Raw SPR data, fit” value (0.390625fit, time -29.1 s) was 0.007289 and the “Raw SPR data, fit” value (0.390625fit, time -29.2 s) was 0.007315.
